How the values were obtained:
[1] = system: PBMC; assay: Decrease in mitochondrial Cytochrome C oxidase 2 protein expression in PBMCs from patient on a long-term schedule of the drug with hyperlactatemia relative to control; type: functional, Homo sapiens; set-up: scale not given: the % may be the effect or the level left
[2] = system: PBMC; assay: Increase in Cytochrome C oxidase 2 mitochondrial RNA transcripts in PBMCs from patient on a long-term schedule of the drug with hyperlactatemia relative to control; type: functional, Homo sapiens
[3] = system: PBMC; assay: Effect on mitochondrial DNA level in PBMCs from patient on a long-term schedule of the drug with hyperlactatemia relative to control; type: functional, Homo sapiens
[4] = system: PBMC; assay: Decrease in mitochondrial Cytochrome C oxidase activity in PBMCs from patient on a long-term schedule of the drug with hyperlactatemia relative to control; set-up: scale not given: the % may be the effect or the level left
[5] = system: PBMC; assay: Effect on mitochondrial mass in PBMCs from patient during hyperlactemic phase by citrate synthase method relative to control; type: functional, Homo sapiens
[6] = system: PBMC; assay: Effect on mitochondrial mass in PBMCs from patient during hyperlactemic phase by V-DAC method relative to control; type: functional, Homo sapiens

CC(=O)NC[C@H]1CN(c2ccc(N3CCOCC3)c(F)c2)C(=O)O1 [LINEZOLID]
Activity [1]: 16% | Activity [2]: 297% | Activity [3]: 82% | Activity [4]: 51% | Activity [5]: 59% | Activity [6]: 60%
